Experiments:
[1] = system: S. cerevisiae X2180-1A; assay: MIC, growth inhibition; format: cell-based, Saccharomyces cerevisiae; conditions: minimum concentration required to inhibit growth
Protocol: (§1) Liquid broth microdilution assay
(§2) To quantitate the sensitivity of a particular strain of S. cerevisiae to a compound such as FK506, L-733,560, or nikkomycin Z, the following procedure was followed:
(§3) Dissolve drug of interest at 4× the desired initial concentration. For L-733,560, a 64 mcg/ml solution in sterile SD is prepared. Aliquot 75 mcL of the drug suspension into column 3. Using a multichannel pipettor, transfer 75 mcL from column 3 into column 4, pipet up and down three times to mix, and then transfer 75 mcL from column 4 into column 5. Repeat the serial dilution until column 12 is reached; after mixing, discard 75 mcL to waste.
(§4) Inoculate each strain in a given row by adding 75 mcL of the inoculum into columns 2 to 12. […] Column 2 serves as the no-drug or 100% growth control. The plate is then incubated overnight at 30° C. without shaking.
(§5) After approximately 24 hours of incubation, gently agitate the plate to resuspend the cells and read the absorbance at 600 nm wavelength. The % control growth for any given well can be calculated by dividing the absorbance value for that well by the value from column 2 in the same row. If this is done for each column, the data can be plotted as "Percent control growth" vs. "Drug concentration". The resulting dose-response curve can be used to compare the drug sensitivities of various strains.
(§6) The data in the following table are the minimum concentration of the various drugs required to inhibit the growth of each the mutants and their parent X2180-1A.

[2] = system: S. cerevisiae MY2144 (fks 1-3); assay: MIC, growth inhibition; format: cell-based, Saccharomyces cerevisiae; conditions: MY2144 (fks 1-3)
Protocol: as §1, §2, §3, §4, §5, §6

[3] = system: S. cerevisiae MY2145; assay: MIC, growth inhibition; format: cell-based, Saccharomyces cerevisiae; conditions: MY2145
Protocol: as §1, §2, §3, §4, §5, §6

[4] = target: 1,3-beta-D glucan synthase from X2180-1A (Saccharomyces cerevisiae, UniProt P38631); assay: 1,3-beta-D glucan synthase assay, membrane preparation; format: biochemical; conditions: membranes of X2180-1A
Protocol: Cell free extracts were prepared from mutant and wild type cells grown to logarithmic phase as previously described (Kang and Cabib, PNAS, 83:5808-5812, 1986). After homogenization with glass beads, the unbroken cells and debris were removed by a low speed centrifugation (1,000×gfor 5 min). The supernatant fluids were centrifuged at 100,000×g for 60 min and the pellets were washed with 2.5 ml (per gram of wet cells) of buffer containing 0.05M potassium phosphate (pH 7.5), 0.5 mM DTT, and 1.0 mM PMSF. The washed pellet was resuspended in the same buffer containing 5% glycerol. This served as the microsomal membranes source containing both chitin and glucan synthase enzymatic activities. The standard 1,3-beta-D glucan synthase reaction was initiated by mixing 35 mcg protein in cocktail I, which included TEK buffer (125 mM Tris chloride, pH 7.5, 31 mM KF, and 1 mM EDTA), 25% PBS, pH 7.0, 3.31 mcM GTP-gamma-S, and 0.25% BSA in a total volume of 69 mcL, with cocktail II, which included 4 units alpha-amylase, 25 mcg UDP-glucose, and 1 microCi UDP-^3 H-glucose, in a total volume of 11 mcL. Following 150 minutes of incubation at 30° C., the incorporation of UDP-^[…] into glucan was measured after precipitation with trichloroacetic acid.
Crude enzyme preparations associated with cell membranes were tested for glucan and chitin synthesis activities. […]

[5] = system: S. cerevisiae FKS1 pcr1 (fks2-1): MY2257, MY2258; assay: MIC assay; format: cell-based, Saccharomyces cerevisiae; conditions: less than 10% growth, 42 hours
Protocol: (§7) The sensitivities of pcr1(fks2-1) fks1-1 and pcr1(fks2-1) FKS1 strains to L-733,560, L-636,947 (Aculeacin), and L-687,781 (Dihydropapulocandin) were determined in MIC assays. Briefly, strains were grown to stationary phase in 5.0 ml of liquid YPAD medium. MY2256 precultures were grown in liquid YPAD10Ca. MIC assays were performed in flat well microtiter plates in triplicate. Each well of the microtiter plate was filled with 100 mcL of YPAD medium. To the first well, 100 mcL of a 4× solution of drug in YPAD medium was added. To serve as a control, a stock solution of […] of YPAD was made. 100 mcL of this solution was added to the initial well for strains grown in the presence of solvent but the absence of drug. Two-fold serial dilutions of the drug were performed down the plate.
(§8) Cultures were diluted to 5×10^5 cells/ml in YPAD (1 OD660 =3.3×10^7 cells/ml). 100 mcL of diluted culture was added to each well, resuspended, and incubated at 28° C. After 42 hours, cultures were resuspended and cells densities measured in an SLT Laboratories 340 ATTC microtiter plate reader. The MICs concentrations presented in the table below represent the concentrations of drug that result in less than 10% growth of the strain grown in the absence of drug.

[6] = system: S. cerevisiae fks1-1 pcr1 (fks2-1): MY2256, YFK0996-11B, MY2259, MY2260; assay: MIC assay; format: cell-based, Saccharomyces cerevisiae; conditions: less than 10% growth, 42 hours
Protocol: as §7, §8

[7] = system: S. cerevisiae wild type YFK0005; assay: MIC assay; format: cell-based, Saccharomyces cerevisiae; conditions: less than 10% growth of no-drug control, 42 hours, 28° C.
Protocol: as §7, §8

[8] = system: S. cerevisiae fks1-1 PCR1 YFK0688-14B; assay: MIC assay; format: cell-based, Saccharomyces cerevisiae; conditions: less than 10% growth of no-drug control, 42 hours, 28° C.
Protocol: as §7, §8

Chain of 1,3-beta-D glucan synthase from X2180-1A (P38631 whole entry): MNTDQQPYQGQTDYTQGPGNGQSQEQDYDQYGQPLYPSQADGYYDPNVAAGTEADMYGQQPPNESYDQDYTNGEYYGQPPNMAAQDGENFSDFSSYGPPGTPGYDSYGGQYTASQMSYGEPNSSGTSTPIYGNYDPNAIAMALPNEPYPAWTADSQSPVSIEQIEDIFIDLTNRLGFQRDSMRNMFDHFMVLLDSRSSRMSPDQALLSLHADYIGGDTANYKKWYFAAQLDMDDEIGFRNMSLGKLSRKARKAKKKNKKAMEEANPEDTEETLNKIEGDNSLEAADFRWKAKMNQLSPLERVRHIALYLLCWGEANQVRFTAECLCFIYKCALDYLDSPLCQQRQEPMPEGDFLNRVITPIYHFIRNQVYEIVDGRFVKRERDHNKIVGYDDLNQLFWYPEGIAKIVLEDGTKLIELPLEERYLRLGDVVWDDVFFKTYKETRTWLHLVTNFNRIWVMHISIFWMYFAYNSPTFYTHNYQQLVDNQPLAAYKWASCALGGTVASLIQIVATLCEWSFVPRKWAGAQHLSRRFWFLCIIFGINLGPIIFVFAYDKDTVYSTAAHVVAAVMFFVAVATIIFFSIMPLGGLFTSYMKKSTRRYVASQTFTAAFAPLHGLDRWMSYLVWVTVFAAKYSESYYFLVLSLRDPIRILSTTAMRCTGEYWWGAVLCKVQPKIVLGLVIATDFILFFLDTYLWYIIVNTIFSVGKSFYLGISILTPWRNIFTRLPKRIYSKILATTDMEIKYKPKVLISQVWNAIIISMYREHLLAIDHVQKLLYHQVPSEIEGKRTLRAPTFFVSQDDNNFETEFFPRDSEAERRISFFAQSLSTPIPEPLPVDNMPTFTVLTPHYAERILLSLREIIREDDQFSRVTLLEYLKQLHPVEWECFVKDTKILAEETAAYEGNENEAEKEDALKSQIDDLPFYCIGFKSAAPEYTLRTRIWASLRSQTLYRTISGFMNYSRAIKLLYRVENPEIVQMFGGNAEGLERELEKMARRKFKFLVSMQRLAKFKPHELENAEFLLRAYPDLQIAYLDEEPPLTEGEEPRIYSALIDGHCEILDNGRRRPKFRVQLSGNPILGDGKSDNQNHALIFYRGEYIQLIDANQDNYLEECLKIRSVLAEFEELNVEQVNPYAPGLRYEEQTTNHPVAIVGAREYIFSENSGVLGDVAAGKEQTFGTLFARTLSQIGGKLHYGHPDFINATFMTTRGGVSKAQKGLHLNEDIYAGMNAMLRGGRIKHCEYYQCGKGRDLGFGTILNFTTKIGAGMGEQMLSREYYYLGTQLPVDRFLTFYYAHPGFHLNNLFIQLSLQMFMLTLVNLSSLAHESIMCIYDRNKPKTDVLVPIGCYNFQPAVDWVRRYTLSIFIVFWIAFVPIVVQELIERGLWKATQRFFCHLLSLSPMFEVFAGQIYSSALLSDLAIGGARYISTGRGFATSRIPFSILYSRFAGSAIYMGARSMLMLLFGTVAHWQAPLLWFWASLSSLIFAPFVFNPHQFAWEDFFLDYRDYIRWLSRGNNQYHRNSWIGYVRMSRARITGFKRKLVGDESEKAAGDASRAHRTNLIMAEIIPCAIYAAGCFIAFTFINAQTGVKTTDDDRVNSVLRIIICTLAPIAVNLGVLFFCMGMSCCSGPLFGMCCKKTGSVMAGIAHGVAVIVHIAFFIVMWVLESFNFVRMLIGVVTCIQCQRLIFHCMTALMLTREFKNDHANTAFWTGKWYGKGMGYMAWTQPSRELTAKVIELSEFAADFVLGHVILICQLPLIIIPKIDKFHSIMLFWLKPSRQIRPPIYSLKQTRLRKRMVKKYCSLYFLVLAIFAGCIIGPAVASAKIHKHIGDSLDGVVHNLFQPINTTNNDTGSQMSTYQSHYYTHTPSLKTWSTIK
Chain of 1,3-beta-D glucan synthase from X2180-1A (P06780 1-206, further chain): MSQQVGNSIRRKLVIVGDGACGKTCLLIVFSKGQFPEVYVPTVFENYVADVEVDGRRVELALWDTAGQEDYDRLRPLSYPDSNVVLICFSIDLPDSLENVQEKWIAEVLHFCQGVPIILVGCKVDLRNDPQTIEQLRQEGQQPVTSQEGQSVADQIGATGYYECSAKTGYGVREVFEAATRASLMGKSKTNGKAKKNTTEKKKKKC

Question: With dihydropapulacandin [L-687,781] as the substance, how does the MIC [1] read?
Answer: 5.5 µg/mL

Question: And the MIC [2]?
Answer: 15 µg/mL

Question: What about the MIC [3] of the same substance?
Answer: 5.5 µg/mL

Question: And the IC50 [4]?
Answer: 5.08 µg/mL

Question: What about the “MIC” value [5] of the same substance?
Answer: > 40 µg/mL

Question: And the “MIC” value [6]?
Answer: > 40 µg/mL

Question: And the “MIC” value [7]?
Answer: 40 µg/mL

Question: What about the “MIC” value [8] of the same substance?
Answer: 10 µg/mL
